From patent US11220500B2, “Crystalline form of Valbenazine dibesylate” (Apotex Inc., priority 2018, dated 2022)
Converted amounts (≈) assume the structure as drawn. Structures can show the parent of a compound that is named as a salt. Where two headings read alike, the source gives them in different places.

How the values were obtained:
[1] = 24 h
Protocol: (§1) The solubility of Valbenazine free base, Valbenazine ditosylate and Valbenazine dibesylate were measured in buffer solutions (pH 1.2 to 6.8) in a temperature-controlled water bath at 37° C. with stirring using magnetic stir bars at 325 rpm (rotations per minute). Each Valbenazine sample was weighed and transferred into a 20 mL vial and then 10 mL of buffer was added. The samples were shaken for 1 minute. If all sample dissolved, more sample was added until a saturated solution was obtained. The samples were then equilibrated at 37° C. with stirring using magnetic stir bars at 325 rpm for 24 hours. After equilibration, samples were filtered through 0.45 μm PVDF filters and further diluted with a methanol/water (60/40 v/v) solution. Samples were analyzed by HPLC against known concentrations of standards. The pH values of the solutions were measured after completion of testing.

[2] = Form stability by PXRD of uncapped samples in a 27° C./60% RH stability chamber; format: physicochemical
Protocol: Valbenazine dibesylate Form APO-I can be characterized by a PXRD diffractogram comprising, among other peaks, characteristic peaks, expressed in degrees 2θ (±0.2°), at 6.3°, 9.8° and 15.6°. Preferably, the PXRD diffractogram further comprises at least three peaks, expressed in degrees 2θ (±0.2°), selected from the group consisting of 5.3°, 7.7°, 8.5°, 12.5°, 14.0°, 16.8°, 17.1°, 17.8°, 18.6° and 19.7°. More preferably, the PXRD diffractogram further comprises peaks, expressed in degrees 2θ (±0.2°), at 5.3°, 7.7°, 8.5°, 12.5°, 14.0°, 16.8°, 17.1°, 17.8°, 18.6° and 19.7°.
Data were acquired on a PANanalytical X'Pert Pro MPD diffractometer with fixed divergence slits and an X'Celerator detector. The diffractometer was configured in Bragg-Brentano geometry; data was collected over a 2θ range of 3° to 40° using CuKα radiation at a power of 40 mA and 45 kV. CuKβ radiation was removed using a divergent beam nickel filter. A step size of 0.017°, and a step time of 40 seconds, was used. Raw data were evaluated using X'Pert High Score Plus. Samples were rotated to reduce preferred orientation effects. Samples were lightly ground prior to analysis.

physchem = conditions: 37 °C, thermodynamic from solid, Solubility expressed as Valbenazine free base
Protocol: as §1

[3] = Comparative solubility of Valbenazine forms in buffer solutions (pH 1.2 to 6.8) at 37° C., HPLC; conditions: equilibrated 24 hours
Protocol: as §1

Compound	Difference of aqueous solubility from that of Valbenazine ditosylate of the approved drug product [1] [% units]	Solubility expressed as Valbenazine free base ([1]; pH 1.2) [mg/mL]	Solubility expressed as Valbenazine free base ([1]; pH 6.8) [mg/mL]	Form stability ([2]; open exposure to 27° C./60% RH for at least 5 months)	Change in the crystalline form (PXRD) ([2]; uncapped samples, 27° C./60% RH stability chamber, at least 20 weeks)	solubility at 24 h (physchem; pH 4.5, aqueous buffer) [mg/mL]	Solubility expressed as Valbenazine free base ([1]; pH 4.5) [mg/mL]	solubility at 24 h (physchem; pH 1.2, simulated gastric fluid) [mg/mL]	Solubility expressed as Valbenazine free base ([3]; buffer pH 1.2, 37° C.) [mg/mL]	Solubility expressed as Valbenazine free base ([3]; buffer pH 4.5, 37° C.) [mg/mL]	Solubility expressed as Valbenazine free base ([3]; buffer pH 6.8, 37° C.) [mg/mL]
COc1cc2c(cc1OC)[C@H]1C[C@@H](OC(=O)[C@@H](N)C(C)C)[C@H](CC(C)C)CN1CC2 [Dibesylate salt, Valbenazine dibesylate]	≤ 10	22.4	8.1	exhibits form stability	no change in the crystalline form	18.5	–	–	–	–	–
COc1cc2c(cc1OC)[C@H]1C[C@@H](OC(=O)[C@@H](N)C(C)C)[C@H](CC(C)C)CN1CC2 [Free base, (2R,3R,11bR)-1,3,4,6,7,11b-hexahydro-9,10-dimethoxy-3-(2-methylpropyl)-2H-benzo[a]quinolizin-2-yl-L-valine ester]	–	–	1.2 (≈ 2.87 mM)	–	–	–	21.6 (≈ 51.6 mM)	21.3 (≈ 50.9 mM)	–	–	–
Valbenazine ditosylate [Ditosylate salt]	–	–	–	–	–	–	–	–	20.9	17.7	7.6
